What was measured:
S. aureus MW2-WT [1] = test: Time-to-kill assay (OD and CFU counts over 16 h), broth dilution; assay type: cell-based, Staphylococcus aureus
Description: FIGS. 4A-F show. […] Optical Density and corresponding Colony forming units of (C and D) MW2-WT and (E and F) MW2ΔSTK1 cultures in the presence or absence 50 μM Inh2-B1, 1.51 μM (1 μg/ml) Ceftriaxone, 2.125 μM (1 μg/ml) Cefotaxime, and combination of Inh2-B1 plus Ceftriaxone, and Inh2-B1 plus Cefotaxime. The experiments were carried out as described in the Materials and Method section using Muller-Hinton broth and seeded with 4×10^6 CFUs of S. aureus MW2-Wild type or MW2ΔSTK1 strains per well. Each data points represent Mean±S.D. P values of significance (**=<0.01, ***=<0.001) were determined using the t-test with Welch's corrections. NS—Not significant.
Subsequently, the susceptibility of S. aureus MW2 strain to Ceftriaxone, Cefotaxime, Inh2, and Inh2-B1 was confirmed by the CLSI recommended serial dilution method using Muller Hinton broth. Minimum bactericidal activity (MBC) was measured using Muller-Hinton agar. Changes in the MBC of Ceftriaxone/Cefotaxime in the presence of serially diluted Inh2-B1 was determined in two steps. Initial screening was carried out using the Checkerboard method using Muller-Hinton agar (FIG. 15). […] Subsequent time to kill assays were carried out using 50 μM Inh2-B1 and Ceftriaxone. Cefotaxime (1 μg/ml) in a final volume of 250 μl using a sterile 96-well (U-bottom) microtiter plate over a period of 16 h at 37° C. under constant rotation (120 rpm). Optical density and corresponding CFU counts were measured at every two-hour interval up to 8 hours with a final overnight reading at the end of incubation period. CFU counts were measured using appropriate dilution of 10 μl of properly mixed samples at each time interval. All experiments were performed in three biological replicates and the statistical analysis of the results obtained at each time point was carried out by the non-parametric t-test with Welch's correction using GraphPad Prism 6 software.

BEAS-2B cells = test: LDH release cytotoxicity assay; assay type: cell-based, human; conditions: 1.56-100 μM, 24 h
Description: (§1) Various concentrations (1.56-100 μM) of the small molecule compounds Inh2-B1 were tested for their cytotoxicity by incubating them for 24 h in the cell lines mentioned above. The cytotoxicity of compounds was determined by measuring the activity of lactate dehydrogenase (LDH) released from the damaged cells during incubation. The LDH assay was performed in triplicate wells. At the end of incubation, the plates were lightly centrifuged, and the culture supernatants were examined for the presence of LDH activity using Cytotoxicity Detection Kit (Promega) per the manufacturer's instructions. LDH activity was detected spectrophotometrically (Molecular device, 490 nm) and normalized to the total LDH activity (100%) in cell lysate of the untreated cells. Background value obtained with untreated culture supernatant was subtracted before data evaluation.

Detroit 562 cells = test: LDH release cytotoxicity assay; assay type: cell-based, human; conditions: 1.56-100 μM, 24 h
Description: as §1

S. aureus MW2-WT [2] = test: S. aureus mouse septicemia model, therapeutic study; assay type: in vivo, CD-1 mice
Description: (§2) The virulence potential of the wild-type S. aureus MW2 wild-type and corresponding MW2ΔSTK1 and MW2ΔSTP1 mutants was assessed using the mouse-septicemia model. CD-1 mice (5 weeks old, 20-22 g. Charles River Laboratories, ten female mice/group and housed in a group of 5 mice/cage) were lightly anesthetized with isoflurane and injected retro-orbitally with the S. aureus MW2 or isogenic MW2Δstk1 mutant (4×10^8 CFU/0.1 ml of PBS). […] For therapeutic studies, the animals were first challenged with MW2-WT strain as described above and subsequently administered with antibiotic and/or small molecule compounds. The latter was started 4 h after the challenge and subsequently 12 h apart for 4 days post infection. Thus, Inh2-B1 (5 mg/kg body weight in 0.3 ml vehicle buffer), Ceftriaxone (10 and 25 mg/kg body weight in 0.3 ml vehicle buffer). Cefotaxime (10 mg/kg body weight), combination of Ceftriaxone (10 mg and 25 mg/kg body weight in 0.3 ml vehicle buffer) or Cefotaxime (10 mg/kg body weight) with Inh2-B1 (5 mg/kg body weight in 0.3 ml vehicle buffer), or 0.3 ml of vehicle-buffer (50 mM Tris/HCl, pH 8.8, 1.67% [v/v] DMSO). Early removal and euthanasia criteria were applied to all experimental mice showing penultimate sign(s) of the unrecoverable stage of illness, including ruffled skin with a hunch back, loss of more than 20% of body mass as compared to unchallenged mice receiving mock treatment, dyspnea, and labored gasping. All experiments were performed twice. Data were combined, and percentage survival in each group was statistically evaluated by the Log-Rank test (Kaplan-Meier) using the GraphPad Prism 6 software. P<0.05 was treated as a significant difference. On Day 3 P.I., 3-6 mice from different groups receiving treatment with a single antibiotic or combination therapy were euthanized and sacrificed, and kidneys were […] for determining the bacterial load, which was determined by counting the colony forming units in the homogenized tissue in sterile PBS buffer.

S. aureus MW2 wild-type = test: Serial passage at suboptimal dose (10 generations), stk1 PCR and DNA sequencing; assay type: cell-based, Staphylococcus aureus; conditions: 25 μM Inh2-B1 alone or with 3 μM Ceftriaxone or 3 μM Cefotaxime, 10 generations
Description: Since the STK1 is not essential for bacterial survival and its absence results in retardation of growth, an end-point bactericidal assay was done, employing the Checkerboard titration method followed by a time-to-kill assay using the broth dilution method. The 96-well plate-based checkerboard titration assays were performed using the fixed number of CFUs of MW2 strain, and the survival of the bacteria was measured on solid agar plates as an end-point result. […] The cut-off value to designate clinical isolates of S. aureus for antibiotics, including Ceftriaxone (TX) and Cefotaxime (CT) as susceptible, is less than 4 μg/ml (i.e., <4.8 μM of TX, and <7 μM of CT). […] CFU counts of MW2-WT grown in the presence of various concentrations of Inh2-B1 were examined over a period of 16 h. […] Similarly, it was also determined CFU counts of MW2-WT and MW2ΔSTK1 strains each grown in the absence or the presence of 50 μM of Inh2-B1 and 1.5 μM Ceftriaxone (1 μg/ml) or […] Cefotaxime (1 μg/ml) for 16 h employing the broth dilution method. […] Further, to address whether MW2 or STK1 could become refractory to a potential combined therapy, the S. aureus MW2 wild-type strain was grown in the presence of suboptimal dose of Inh2-B1 alone and combination with Ceftriaxone and Cefotaxime (25 μM Inh2-B1 and 3 μM of Ceftriaxone or 3 μM Cefotaxime) for consecutive 10 generations.

[3] = Tolerability in mice treated with compound only; assay type: in vivo, CD-1 mice; conditions: 5 mg/kg i.p., ten-day observation
Description: as §2, with “Cefotaxime (10 mg/kg body weight), combination of Ceftriaxone (10 mg and 25 mg/kg body weight in 0.3 ml vehicle buffer) or Cefotaxime (10 mg/kg body weight) with Inh2-B1 (5 mg/kg body weight in 0.3 ml vehicle buffer), or 0.3 ml of vehicle-buffer (50 mM Tris/HCl, pH 8.8, 1.67% [v/v] DMSO). Early removal and euthanasia criteria were applied to all experimental mice showing penultimate sign(s) of the unrecoverable stage of illness, including ruffled skin with a hunch back, loss of more than 20% of body mass as compared to unchallenged mice receiving mock treatment, dyspnea, and labored gasping. All experiments were performed twice.” left out, “P<0.05 was treated as a significant difference.” left out

[4] = Inh2-B1 5 mg/kg plus Cefotaxime 10 mg/kg

Structure (SMILES): COC(=O)c1ccc2c(=O)[nH]c3c(C(=O)Nc4ccccc4)sc(=S)n3c2c1 [Inh2-B1, Methyl 5-oxo-3-(phenylcarbamoyl)-1-thioxo-4,5dihydro[1,3]thiazolo[3,4-a]quinazoline-8-carboxylate]
- log increase in growth from starting inoculum (S. aureus MW2-WT [1]; 100 μM Inh2-B1, 16 h): more than 3 log
- CFU count of MW2-WT after growth (S. aureus MW2-WT [1]; 100 μM Inh2-B1, 16 h, starting inoculum 4×10^6 CFU): 1.8±1.0×10^9 CFU
- growth pattern of the MW2 wild-type in the presence of Inh2-B1 (S. aureus MW2-WT [1]; FIGS. 4A and 4B, mimicked MW2ΔSTK1): slightly retarded
- growth of the MW2 wild-type, mixture (S. aureus MW2-WT [1]; mixture of 1.5 μM Ceftriaxone (1 μg/ml) and 50 μM Inh2-B1): dramatically inhibited
- growth pattern of the wild-type, single agent (S. aureus MW2-WT [1]; only 50 μM Inh2-B1, only 1.5 μM Ceftriaxone (1 μg/ml) or only 3 μM Cefotaxime (1 μg/ml), 16 h): remained unaltered
- log reduction in comparison to the wild-type (S. aureus MW2-WT [1]; very high concentration (100 μM) of Inh2-B1): ~2 log
- cytotoxicity (LDH release) (BEAS-2B cells): ~15%
- lysis (LDH release) (Detroit 562 cells): less than 5%
- number of survived animals at the end of 10 days, Cefotaxime combination compared with Ceftriaxone combination (S. aureus MW2-WT [2]; [4]): significantly low
- survival of mice, combination therapy with Cefotaxime (Inh2-B1+CT) (S. aureus MW2-WT [2]; [4]): significantly prolonged the survival of mice
- survival, combination therapy with Ceftriaxone (S. aureus MW2-WT [2]; Inh2-B1 5 mg/kg plus Ceftriaxone 10 or 25 mg/kg i.p., ten days): 60%
- S. aureus MW2 burden in kidneys (S. aureus MW2-WT [2]; day 3 P.I., combined therapy (Inh2-B1 with Ceftriaxone or Cefotaxime) vs single or no therapy): significantly low
- changes in the stk1 gene of the passaged strain (S. aureus MW2 wild-type): did not show any changes in the stk1 gene
- signs of illness in mice treated with only the compound [3]: no morbid signs of illness
- survival of mice treated with only the compound [3]: survived all throughout the observation period
